Structures can show the parent of a compound that is named as a salt. ± gives the uncertainty stated by the source.
Tested on: HepG2 (L1.3 5'UTR promoter firefly luciferase reporter)
Experiment: L1 promoter activity (FLuc/RLuc) relative to DMSO vehicle control (% of control); higher = stronger L1 promoter activation
Method: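 HepG2 cells in 96-well plates were cotransfected with pGL4.11-L1.3 5'UTR (firefly luciferase driven by the human L1.3 5'UTR promoter) and pGL4.74 (HSV-TK Renilla luciferase internal control), then treated with compound for 6 or 24 h. FLuc/RLuc ratio was normalised to the DMSO vehicle control (% of control); concentrations where RLuc fell below 50% of control were excluded (N.D.). Mean of at least two independent experiments in duplicate or quadruplicate.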

[1] = concentration (uM unless unit written): 10, treatment time: 6 h
[2] = concentration (uM unless unit written): 10, treatment time: 24 h
[3] = concentration (uM unless unit written): 25, treatment time: 6 h
[4] = concentration (uM unless unit written): 25, treatment time: 24 h
[5] = concentration (uM unless unit written): 50, treatment time: 6 h
[6] = concentration (uM unless unit written): 50, treatment time: 24 h
[7] = concentration (uM unless unit written): 100, treatment time: 6 h
[8] = concentration (uM unless unit written): 100, treatment time: 24 h
[9] = concentration (uM unless unit written): 0.1, treatment time: 6 h
[10] = concentration (uM unless unit written): 200, treatment time: 6 h
[11] = concentration (uM unless unit written): 0.1, treatment time: 24 h
[12] = concentration (uM unless unit written): 0.5, treatment time: 6 h
[13] = concentration (uM unless unit written): 0.5, treatment time: 24 h
[14] = concentration (uM unless unit written): 1, treatment time: 6 h
[15] = concentration (uM unless unit written): 1, treatment time: 24 h
[16] = concentration (uM unless unit written): 125, treatment time: 6 h
[17] = concentration (uM unless unit written): 125, treatment time: 24 h
[18] = concentration (uM unless unit written): 250, treatment time: 6 h
[19] = concentration (uM unless unit written): 250, treatment time: 24 h
[20] = concentration (uM unless unit written): 500, treatment time: 6 h

For `COC(=O)[C@H](c1ccccc1Cl)N1CCc2sccc2C1` [Clopidogrel], the L1 promoter activity [1] was 96.7 ± 8.6, the L1 promoter activity [2] was 113 ± 5.2 and the L1 promoter activity [3] was 98.5 ± 12. For the same compound, the L1 promoter activity [4] was 113 ± 14, the L1 promoter activity [5] was 92.9 ± 6 and the L1 promoter activity [6] was 110 ± 9.2. The L1 promoter activity [7] was 84.6 ± 4.5 and the L1 promoter activity [8] was 107 ± 12.
`COc1cc2c(c(OC)c1OC)-c1ccc(OC)c(=O)cc1[C@@H](NC(C)=O)CC2` [Colchicine] showed an L1 promoter activity (concentration (uM unless unit written): 0.01, treatment time: 6 h) of 100 ± 17, an L1 promoter activity (concentration (uM unless unit written): 0.01, treatment time: 24 h) of 100 ± 18 and an L1 promoter activity (concentration (uM unless unit written): 0.05, treatment time: 6 h) of 99.8 ± 4.3. For the same compound, the L1 promoter activity [9] was 108 ± 32.
Compound `O=P1(N(CCCl)CCCl)NCCCO1` (stereo unspecified) [Cyclophosphamide] has an L1 promoter activity (concentration (uM unless unit written): 10000, treatment time: 6 h) of 96.3 ± 14, an L1 promoter activity (concentration (uM unless unit written): 10000, treatment time: 24 h) of 95.3 ± 11 and an L1 promoter activity (concentration (uM unless unit written): 20000, treatment time: 6 h) of 93.6 ± 22. For the same compound, the L1 promoter activity (concentration (uM unless unit written): 20000, treatment time: 24 h) was 77.9 ± 4.5 and the L1 promoter activity (concentration (uM unless unit written): 40000, treatment time: 6 h) was 98.3 ± 8.4.
For `CN1CCC(=C2c3ccccc3C=Cc3ccccc32)CC1` [Cyproheptadine hydrochloride sesquihydrate], the L1 promoter activity [5] was 90.1 ± 17, the L1 promoter activity [6] was 70.2 ± 14 and the L1 promoter activity [7] was 74.7 ± 30. The L1 promoter activity [10] was 47.2 ± 12.
In the case of `C=C1[C@@H](C)[C@H]2[C@H](Cc3ccccc3)NC(=O)[C@]23[C@H](OC(C)=O)/C=C/[C@@](C)(O)C(=O)[C@@H](C)C/C=C/[C@H]3[C@@H]1O` [Cytochalasin D], the L1 promoter activity [9] is reported as 110 ± 13, the L1 promoter activity [11] is reported as 106 ± 11 and the L1 promoter activity [12] is reported as 101 ± 7.4. For the same compound, the L1 promoter activity [13] was 128 ± 8.5, the L1 promoter activity [14] was 106 ± 12 and the L1 promoter activity [15] was 167 ± 16. For the same compound, the L1 promoter activity [1] was 98.6 ± 13 and the L1 promoter activity [2] was 295 ± 20.
In the case of `Nc1ccn([C@@H]2O[C@H](CO)[C@@H](O)[C@@H]2O)c(=O)n1` [Cytosine arabinoside], the L1 promoter activity [16] is reported as 101 ± 8, the L1 promoter activity [17] is reported as 106 ± 3.7 and the L1 promoter activity [18] is reported as 95.2 ± 5.5. The L1 promoter activity [19] was 105 ± 4.4, the L1 promoter activity [20] was 102 ± 8.1 and the L1 promoter activity (concentration (uM unless unit written): 500, treatment time: 24 h) was 103 ± 6.2.
For `O=C(O)Cc1ccccc1Nc1c(Cl)cccc1Cl` [Diclofenac], the L1 promoter activity [16] was 109 ± 7.5, the L1 promoter activity [17] was 68.5 ± 3.6 and the L1 promoter activity [18] was 107 ± 1.6. It also gave an L1 promoter activity [19] of 59.6 ± 5.5.
Compound `CCOC(=O)CC(O)C(=O)OCC` (stereo unspecified) [Diethyl malate] has an L1 promoter activity (concentration (uM unless unit written): 375, treatment time: 6 h) of 127 ± 13 and an L1 promoter activity (concentration (uM unless unit written): 750, treatment time: 6 h) of 159 ± 18.
Work on `O=C(O)c1cc(-c2ccc(F)cc2F)ccc1O` [Diflunisal] yielded an L1 promoter activity (concentration (uM unless unit written): 62.5, treatment time: 6 h) of 148 ± 6.5, an L1 promoter activity (concentration (uM unless unit written): 62.5, treatment time: 24 h) of 117 ± 8.5 and an L1 promoter activity [16] of 136 ± 12. It also gave an L1 promoter activity [17] of 156 ± 4.7 and an L1 promoter activity [18] of 159 ± 21.
For `COc1cccc2c1C(=O)c1c(O)c3c(c(O)c1C2=O)C[C@@](O)(C(=O)CO)C[C@@H]3O[C@H]1C[C@H](N)[C@H](O)[C@H](C)O1` [Doxorubicin], the L1 promoter activity [11] was 88.8 ± 15, the L1 promoter activity [12] was 101 ± 33 and the L1 promoter activity [13] was 40.2 ± 13. The L1 promoter activity [14] was 98.1 ± 26 and the L1 promoter activity [15] was 30.3 ± 5.5.
`NC1=NCC2c3ccccc3Cc3ccccc3N12` (stereo unspecified) [Epinastine hydrochloride] gave an L1 promoter activity [7] of 93.6 ± 15, an L1 promoter activity [8] of 85.9 ± 26 and an L1 promoter activity [10] of 77.8 ± 12. It also gave an L1 promoter activity [20] of 27.1 ± 3.8.
Compound `CCOC(=O)[C@@]1(CCCCCCOc2ccc(Cl)cc2)CO1` [Etomoxir] has an L1 promoter activity [5] of 127 ± 11, an L1 promoter activity [6] of 111 ± 15 and an L1 promoter activity [7] of 147 ± 12. It also gave an L1 promoter activity [8] of 143 ± 17 and an L1 promoter activity [20] of 181 ± 23.
Compound `COc1cc([C@@H]2c3cc4c(cc3[C@@H](O[C@@H]3O[C@@H]5CO[C@@H](C)O[C@H]5[C@H](O)[C@H]3O)[C@H]3COC(=O)[C@H]23)OCO4)cc(OC)c1O` [Etoposide] has an L1 promoter activity [1] of 90.4 ± 7.5, an L1 promoter activity [2] of 95.7 ± 4.1 and an L1 promoter activity [3] of 100 ± 30. For the same compound, the L1 promoter activity [4] was 108 ± 16, the L1 promoter activity [5] was 98.6 ± 21 and the L1 promoter activity [6] was 138 ± 70.
`CC(C)OC(=O)C(C)(C)Oc1ccc(C(=O)c2ccc(Cl)cc2)cc1` [Fenofibrate] gave an L1 promoter activity [1] of 117 ± 9.8, an L1 promoter activity [2] of 108 ± 5.3 and an L1 promoter activity [5] of 126 ± 11. For the same compound, the L1 promoter activity [6] was 127 ± 10, the L1 promoter activity [7] was 141 ± 12 and the L1 promoter activity [8] was 163 ± 24.
`OC(Cn1cncn1)(Cn1cncn1)c1ccc(F)cc1F` [Fluconazole] was tested, and the L1 promoter activity (concentration (uM unless unit written): 1250, treatment time: 6 h) was 108 ± 11, the L1 promoter activity (concentration (uM unless unit written): 1250, treatment time: 24 h) was 99.5 ± 7.4 and the L1 promoter activity (concentration (uM unless unit written): 2500, treatment time: 6 h) was 99.2 ± 6.7. For the same compound, the L1 promoter activity (concentration (uM unless unit written): 2500, treatment time: 24 h) was 92.7 ± 13.

Source: the supplement of paper PMC3770661
